# In patent US20120015907A1, “Furopyridine compounds and uses thereof” (NOVARTIS AG, priority 2010, published 2012):
# pIC50: −log10 of the molar value.
# Target: T1, HCV polymerase (Hepatitis C virus genotype 1b, UniProt Q9WMX2)
# T1 construct: (His)6 (C)
# Test: biochemical
# Details: NS5B polymerase IC50 μM, polymerase assay of Biological Example 1
# Description: A number of assays have been published to assess these activities. A general method that assesses the gross increase of HCV virus in culture was disclosed in U.S. Pat. No. 5,738,985 to Miles et al. In vitro assays have been reported in Ferrari et al. Jnl. of Vir., 73:1649-1654, 1999; Ishii et al., Hepatology, 29:1227-1235, 1999; Lohmann et al., Jnl of Bio. Chem., 274:10807-10815, 1999; and Yamashita et al., Jnl. of Bio. Chem., 273:15479-15486, 1998.
# WO 97/12033, filed on Sep. 27, 1996, by Emory University, listing C. Hagedorn and A. Reinoldus as inventors, which claims priority to U.S. Provisional Patent Application Ser. No. 60/004,383, filed on September 1995, described an HCV polymerase assay that can be used to evaluate the activity of the of the compounds described herein. Another HCV polymerase assay has been reported by Bartholomeusz, et al., Hepatitis C Virus (HCV) RNA polymerase assay using cloned HCV non-structural proteins; Antiviral Therapy 1996:1(Supp 4) 18-24.
row,Structure (SMILES),IC50
1,"CCOP(C)(=O)CCCN(c1nc2oc(-c3ccc(C)cc3)c(C(=O)NC)c2cc1C1CC1)S(C)(=O)=O (stereo not drawn) [Example 23.99992, ethyl 3-(N-(5-cyclopropyl-3-(methylcarbamoyl)-2-p-tolylfuro[2,3-b]pyridin-6-yl)methylsulfonamido)propyl (methyl)phosphinate]",0.007 µM

# Same assay, conditions: polymerase assay of Biological Example 1; read-out: NS5B polymerase IC50
row,Structure (SMILES),pIC50
1,"CCc1cc2c(C(=O)NC)c(-c3ccc(F)cc3)oc2nc1N(CCCS(=O)(=O)N1CCOCC1)S(C)(=O)=O [Example 21.98, 5-ethyl-2-(4-fluorophenyl)-N-methyl-6-(N-(3-(morpholinosulfonyl)propyl)methylsulfonamido)furo[2,3-b]pyridine-3-carboxamide]",7.43
2,"CNC(=O)c1c(-c2ccc(F)cc2)oc2nc(N(CCCC(O)CO)S(C)(=O)=O)c(I)cc12 (stereo not drawn) [Example 18.93, 6-(N-(4,5-dihydroxypentyl)methylsulfonamido)-2-(4-fluorophenyl)-5-iodo-N-methylfuro[2,3-b]pyridine-3-carboxamide]",6.97
3,"CNC(=O)c1c(-c2ccc(C)cc2)oc2nc(N(CCC(CC(=O)O)N(C)C)S(C)(=O)=O)c(C3CC3)cc12 (stereo not drawn) [Example 44, 5-[(5-Cyclopropyl-3-methylcarbamoyl-2-p-tolyl-furo[2,3-b]pyridin-6-yl)-methanesulfonyl-amino]-3-dimethylamino-pentanoic acid]",7.70
4,"CCc1cc2c(C(=O)NC)c(-c3ccc(F)cc3)oc2nc1N(C[C@H](C)Cc1ccc(OC)nc1)S(C)(=O)=O [Example 21.7, (R)-5-ethyl-2-(4-fluorophenyl)-6-(N-(3-(6-methoxypyridin-3-yl)-2-methylpropyl)methylsulfonamido)-N-methylfuro[2,3-b]pyridine-3-carboxamide]",6.27
5,"CCc1cc2c(C(=O)NC)c(-c3ccc(F)cc3)oc2nc1N(CCOc1ccc(C(=O)OC)cc1)S(C)(=O)=O [Example 22.7, methyl 4-(2-(N-(5-ethyl-2-(4-fluorophenyl)-3-(methylcarbamoyl)furo[2,3-b]pyridin-6-yl)methylsulfonamido)ethoxy)benzoate]",7.28
6,"CNC(=O)c1c(-c2ccc(F)cc2)oc2nc3c(cc12)C(C)CCN3S(C)(=O)=O (stereo not drawn) [Example 36.6, 2-(4-fluorophenyl)-N,5-dimethyl-8-(methylsulfonyl)-5,6,7,8-tetrahydrofuro[2,3-b][1,8]naphthyridine-3-carboxamide]",6.64
7,"CNC(=O)c1c(-c2ccc(C)cc2)oc2nc(N(CCCCO)S(C)(=O)=O)c(C3CC3)cc12 [Example 23.99994, 5-cyclopropyl-6-(N-(4-hydroxybutyl)methylsulfonamido)-N-methyl-2-p-tolylfuro[2,3-b]pyridine-3-carboxamide]",8.52
8,"CCc1cc2c(C(=O)NC)c(-c3ccc(F)cc3)oc2nc1N(CCOCCN1C(=O)NC(C)(C)C1=O)S(C)(=O)=O [Example 22.4, 6-(N-(2-(2-(4,4-dimethyl-2,5-dioxoimidazolidin-1-yl)ethoxy)ethyl)methylsulfonamido)-5-ethyl-2-(4-fluorophenyl)-N-methylfuro[2,3-b]pyridine-3-carboxamide]",7.48
9,"CNC(=O)c1c(-c2ccc(F)cc2)oc2nc(N(C)S(C)(=O)=O)c(CCCCCNC(C)=O)cc12 [Example 14.3, 5-(5-Acetylamino-pentyl)-2-(4-fluoro-phenyl)-6-(methanesulfonyl-methyl-amino)-furo[2,3-b]pyridine-3-carboxylic acid methylamide]",6.30
10,"C#Cc1cc2c(C(=O)NC)c(-c3ccc(F)cc3)oc2nc1N(C)S(C)(=O)=O [Example 7, 5-ethynyl-2-(4-fluorophenyl)-N-methyl-6-(N-methylmethylsulfonamido)furo[2,3-b]pyridine-3-carboxamide]",7.22
11,"CCc1cc2c(C(=O)NC)c(-c3ccc(F)cc3)oc2nc1N(CCCCOc1ccccc1OC)S(C)(=O)=O [Example 22.1, 5-ethyl-2-(4-fluorophenyl)-6-(N-(4-(2-methoxyphenoxy)butyl)methylsulfonamido)-N-methylfuro[2,3-b]pyridine-3-carboxamide]",7.47
